# Source: PMC9694146, “Novel [1,2,4]triazolo[3,4-b][1,3,4]thiadiazine and [1,2,4]triazolo[3,4-b][1,3,4]thiadiazepine Derivatives: Synthesis, Anti-Viral In Vitro Study and Target Validation Activity” (Molecules, 2022)
# Tested on: not listed separately
# Experiment: Cytotoxicity, methyltetrazolium (MTT) assay on MDCK cell monolayer
# Format: cell-based
# Details: dog; MDCK cells, 72 h, MTT; read-out: CC50, cytotoxic concentration; the concentration resulting in 50% death of cells
# Procedure: (§1) The cytotoxic properties of the compounds were investigated in a separate series of experiments. A series of threefold dilutions (300–3.7 µg/mL) were prepared from the test compounds, after which they were added to the wells of plates with a monolayer of MDCK cells (ATCC CCL-34). […] The plates with cells were incubated for 2 h. The precipitate was dissolved in DMSO (0.1 mL per well). The optical density in the wells was measured on a Thermo Multiskan FC plate photometer (Thermo Fisher Scientific, USA) at a wavelength of 540 nm. Based on the obtained data, CC50 values (the concentration of the compound, leading to a decrease in optical density by half, compared to wells without the addition of compounds) were calculated.
row,Compound,CC50 at 72 h [µM]
1,"Sc1nncn1N=CC#Cc1ccccc1 [Compound 1a, 4-((3-phenylprop-2-yn-1-ylidene)amino)-4H-1,2,4-triazole-3-thiol]",134 ± 11
2,"Cc1nnc(S)n1N=CC#Cc1ccccc1 [Compound 1b, 5-methyl-4-((3-phenylprop-2-yn-1-ylidene)amino)-4H-1,2,4-triazole-3-thiol]",126 ± 11.3
3,"CCc1nnc(S)n1N=CC#Cc1ccccc1 [Compound 1c, 5-ethyl-4-((3-phenylprop-2-yn-1-ylidene)amino)-4H-1,2,4-triazole-3-thiol]",119 ± 9.6
4,"Sc1nncn1NCC#Cc1ccccc1 [Compound 2a, 4-((3-phenylprop-2-yn-1-yl)amino)-4H-1,2,4-triazole-3-thiol]",> 1300
5,"Cc1nnc(S)n1NCC#Cc1ccccc1 [Compound 2b, 5-methyl-4-((3-phenylprop-2-yn-1-yl)amino)-4H-1,2,4-triazole-3-thiol]",> 1200
6,"CCc1nnc(S)n1NCC#Cc1ccccc1 [Compound 2c, 5-ethyl-4-((3-phenylprop-2-yn-1-yl)amino)-4H-1,2,4-triazole-3-thiol]",487 ± 22.5
7,"CCCc1nnc(S)n1NCC#Cc1ccccc1 [Compound 2d, 5-propyl-4-((3-phenylprop-2-yn-1-yl)amino)-4H-1,2,4-triazole-3-thiol]",138 ± 12
8,"C1=Nn2cnnc2S/C1=C\c1ccccc1 [Compound 6a, (Z)-7-benzylidene-7H-[1,2,4]triazolo[3,4-b][1,3,4]thiadiazine]",578 ± 32.3
9,"Cc1nnc2n1N=C/C(=C/c1ccccc1)S2 [Compound 6b, (Z)-7-benzylidene-3-methyl-7H-[1,2,4]triazolo[3,4-b][1,3,4]thiadiazine]",433 ± 37.6
10,"CCc1nnc2n1N=C/C(=C/c1ccccc1)S2 [Compound 6c, (Z)-7-benzylidene-3-ethyl-7H-[1,2,4]triazolo[3,4-b][1,3,4]thiadiazine]",979 ± 55.1
11,"CCCc1nnc2n1N=C/C(=C/c1ccccc1)S2 [Compound 6d, (Z)-7-benzylidene-3-propyl-7H-[1,2,4]triazolo[3,4-b][1,3,4]thiadiazine]",> 1100
12,"C1=Nn2cnnc2SC(c2ccccc2)=C1 [Compound 7a, 8-phenyl-[1,2,4]triazolo[3,4-b][1,3,4]thiadiazepine]",42.9 ± 3.2
13,"CCc1nnc2n1N=CC=C(c1ccccc1)S2 [Compound 7c, 3-ethyl-8-phenyl-[1,2,4]triazolo[3,4-b][1,3,4]thiadiazepine]",6.1 ± 0.3
14,"C(=C1\CNn2cnnc2S1)/c1ccccc1 [Compound 8a, (Z)-7-benzylidene-6,7-dihydro-5H-[1,2,4]triazolo[3,4-b][1,3,4]thiadiazine]",> 1300
15,"Cc1nnc2n1NC/C(=C/c1ccccc1)S2 [Compound 8b, (Z)-7-benzylidene-3-methyl-6,7-dihydro-5H-[1,2,4]triazolo[3,4-b][1,3,4]thiadiazine]",> 1200
16,"CCc1nnc2n1NC/C(=C/c1ccccc1)S2 [Compound 8c, (Z)-7-benzylidene-3-ethyl-6,7-dihydro-5H-[1,2,4]triazolo[3,4-b][1,3,4]thiadiazine]",> 1100
17,"CCCc1nnc2n1NC/C(=C/c1ccccc1)S2 [Compound 8d, (Z)-7-benzylidene-3-propyl-6,7-dihydro-5H-[1,2,4]triazolo[3,4-b][1,3,4]thiadiazine]",> 1100
18,"C1=C(c2ccccc2)Sc2nncn2NC1 [Compound 10a, 8-phenyl-5,6-dihydro-[1,2,4]triazolo[3,4-b][1,3,4]thiadiazepine]",> 1300
19,"Cc1nnc2n1NCC=C(c1ccccc1)S2 [Compound 10b, 3-methyl-8-phenyl-5,6-dihydro-[1,2,4]triazolo[3,4-b][1,3,4]thiadiazepine]",> 1100
20,"CCc1nnc2n1NCC=C(c1ccccc1)S2 [Compound 10c, 3-ethyl-8-phenyl-5,6-dihydro-[1,2,4]triazolo[3,4-b][1,3,4]thiadiazepine]",972 ± 66.4
21,"CCC(CC)O[C@@H]1C=C(C(=O)O)C[C@H](N)[C@H]1NC(C)=O [Oseltamivir carboxylate, reference compound]",> 100
22,"CC(N)C12CC3CC(CC(C3)C1)C2 (centres unmarked) [Rimantadine, reference compound]",312 ± 22.8

# Tested on: MDCK cells (ATCC CCL-34)
# Experiment: as above
# Format: cell-based
# Details: 300 μg/mL, 1100–1300 μM
# Procedure: as §1
row,Compound,cytotoxicity at the highest concentration used
1,"CCCc1nnc2n1N=C/C(=C/c1ccccc1)S2 [Compound 6d, (Z)-7-benzylidene-3-propyl-7H-[1,2,4]triazolo[3,4-b][1,3,4]thiadiazine]",did not demonstrate cytotoxicity

# Same assay, conditions: 72 h, MTT
row,Compound,"CC50, cytotoxic concentration; the concentration resulting in 50% death of cells"
1,"CCc1nnc2n1N=CC=C(c1ccccc1)S2 [Compound 7c, 3-ethyl-8-phenyl-[1,2,4]triazolo[3,4-b][1,3,4]thiadiazepine]",one-digit micromoles

# Tested on: not given
# Experiment: not given
# Details: not given
row,Compound,melting point [°C]
1,CCCc1nnc2n1NCC=C(c1ccccc1)S2,103 to 104
2,CCCc1nnc2n1N=CC=C(c1ccccc1)S2,88 to 89
